Measurements taken from article PMC6801514, “Structural and Functional Characterization of Three Novel Fungal Amylases with Enhanced Stability and pH Tolerance” (International Journal of Molecular Sciences, 2019).

Biological target: T1, CfAM (Cordyceps farinosa, UniProt A0A5S8WFA8)
T1 construct: A, B and C domains (native enzyme lacks CBM20); secreted from Aspergillus oryzae MT3568, mature about 48 kDa, no tag told; two monomers in the asymmetric unit
T1 sequence (A0A5S8WFA8 19-460): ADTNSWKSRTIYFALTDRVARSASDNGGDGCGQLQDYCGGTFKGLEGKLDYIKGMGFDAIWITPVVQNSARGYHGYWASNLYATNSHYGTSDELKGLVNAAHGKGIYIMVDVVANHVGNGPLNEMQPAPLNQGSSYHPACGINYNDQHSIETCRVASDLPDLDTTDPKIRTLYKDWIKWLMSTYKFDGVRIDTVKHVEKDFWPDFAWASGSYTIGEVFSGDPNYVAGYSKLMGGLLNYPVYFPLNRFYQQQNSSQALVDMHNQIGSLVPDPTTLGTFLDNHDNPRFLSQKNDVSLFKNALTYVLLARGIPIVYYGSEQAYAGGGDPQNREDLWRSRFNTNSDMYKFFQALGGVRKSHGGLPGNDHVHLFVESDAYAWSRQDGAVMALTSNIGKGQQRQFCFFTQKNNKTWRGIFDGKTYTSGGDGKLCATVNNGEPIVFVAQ
Test: X-ray crystallography, […] Å
Type: binding
Conditions: co-crystallised with 40 mM acarbose, 12% PEG 3350, 0.2 M NaNO3, CAPS pH 11.0; active-site cleft, subsites -4 to +3; ligand formed from acarbose in crystallo crystal (acarbose added, no maltose additio)

Structure (SMILES): OC[C@H]1O[C@H](O[C@H]2[C@H](O)[C@@H](O)C(O)O[C@@H]2CO)[C@H](O)[C@@H](O)[C@@H]1O (stereo partly shown) [maltose]
- X-ray crystallography, 1.35 Å: a secondary binding site in domain C was identified and modelled as maltose
